In one assay the target is T1, intracellular CK2α (Homo sapiens, UniProt P19784).
T1 construct: host or cells: HCT116 (ATCC CCL-247)
The assay can be described thus: Cell-based NanoBRET assay for inhibitor binding to intracellular CK2α. The note with it: HCT116 cells transiently transfected with CSNK2A2-NanoLuc fusion vector; Tracer K-5; 2 h; read-out: Assay 3: NanoBRET ™ assay for binding to intracellular CK2α. The method, boiled down:
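Apparent affinity came from BRET ratio (acceptor/donor ×1,000), with donor read at 450 nm and acceptor at 610 or 630 nm. Compounds competed off a tracer added at fixed concentration to cells carrying a NanoLuc-CK2α fusion.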
In general terms: BRET reads energy transfer from a luciferase to a nearby fluorophore.

Another assay has as its target T2, CK2α (Homo sapiens, UniProt P68400).
T2 construct: CK2α (residues 2-329) was produced in Escherichia coli BL21 (DE3) for kinase activity screening; His6 (N, cleaved yes); made in house; host or cells: Escherichia coli BL21 (DE3)
T2 sequence (P68400 2-329): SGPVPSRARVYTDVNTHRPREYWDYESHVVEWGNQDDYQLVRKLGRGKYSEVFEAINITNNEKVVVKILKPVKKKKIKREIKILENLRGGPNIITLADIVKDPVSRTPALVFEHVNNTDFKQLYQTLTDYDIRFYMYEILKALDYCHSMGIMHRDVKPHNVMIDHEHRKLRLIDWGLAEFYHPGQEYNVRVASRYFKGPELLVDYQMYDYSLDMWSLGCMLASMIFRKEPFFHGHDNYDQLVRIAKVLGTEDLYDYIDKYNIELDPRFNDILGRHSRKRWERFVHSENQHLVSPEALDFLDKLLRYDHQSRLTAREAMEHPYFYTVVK
The assay can be described thus: Biochemical assay for inhibitors of CK2α kinase activity (ADP-Glo). The note with it: 0.2 nM CK2α, 50 μM peptide substrate, 15 μM ATP, read-out: Assay 1: CK2α Enzyme IC50. In general terms: ADP-Glo first removes unused ATP, then detects ADP through luciferase.

The next assay has as its target T3, CLK2 (Homo sapiens, UniProt P49760).
T3 construct: purchased Carna Biosciences 04-127
The assay can be described thus: Biochemical assay for inhibitors of CLK2 kinase activity (ADP-Glo). The note with it: 20 nM CLK2, 50 μM peptide substrate, 100 μM ATP, read-out: Assay 2: CLK2 Enzyme IC50.

Bounds are passed on as bounds.

T3 sequence (P49760 whole entry): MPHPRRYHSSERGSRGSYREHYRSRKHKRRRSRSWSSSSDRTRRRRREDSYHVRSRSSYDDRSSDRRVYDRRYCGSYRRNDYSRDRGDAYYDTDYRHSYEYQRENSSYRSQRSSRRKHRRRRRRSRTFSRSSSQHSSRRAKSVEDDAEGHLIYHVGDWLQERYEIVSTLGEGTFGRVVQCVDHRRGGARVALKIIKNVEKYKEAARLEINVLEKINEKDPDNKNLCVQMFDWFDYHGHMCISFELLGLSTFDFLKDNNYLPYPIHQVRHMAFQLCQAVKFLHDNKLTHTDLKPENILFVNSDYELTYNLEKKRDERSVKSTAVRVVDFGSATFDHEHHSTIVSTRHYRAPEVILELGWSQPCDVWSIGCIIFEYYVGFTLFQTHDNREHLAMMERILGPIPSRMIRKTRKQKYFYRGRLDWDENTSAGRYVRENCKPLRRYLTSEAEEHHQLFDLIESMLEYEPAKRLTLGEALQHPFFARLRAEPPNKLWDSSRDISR
T1 sequence (P19784 whole entry): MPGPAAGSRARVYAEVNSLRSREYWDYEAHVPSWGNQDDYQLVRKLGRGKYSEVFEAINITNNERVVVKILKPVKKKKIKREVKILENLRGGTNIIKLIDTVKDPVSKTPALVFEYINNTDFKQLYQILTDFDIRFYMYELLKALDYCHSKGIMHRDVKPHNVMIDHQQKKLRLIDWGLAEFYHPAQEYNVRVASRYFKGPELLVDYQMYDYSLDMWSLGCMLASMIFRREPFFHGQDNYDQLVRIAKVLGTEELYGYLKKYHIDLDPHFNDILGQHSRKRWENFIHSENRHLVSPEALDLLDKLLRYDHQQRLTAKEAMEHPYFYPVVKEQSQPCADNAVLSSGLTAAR

For `O=C(CCNCc1ccc(OC(F)(F)F)c(Cl)c1)NCCCNc1cc(-c2ccncc2)c(F)c2[nH]ncc12` [Example 180, 3-((3-chloro-4-(trifluoromethoxy)benzyl)amino)-N-(3-((7-fluoro-6-(pyridin-4-yl)-1H-indazol-4-yl)amino)propyl)propanamide], the values for the IC50 at intracellular CK2α, at CK2α and at CLK2 were 100 nM, 3.68 nM and 190 nM, respectively.

As to `O=C(CCNCc1ccc(OC(F)(F)F)c(Cl)c1)NCCCNc1cc(-n2cnnc2)c(Cl)c2[nH]ncc12` [Example 181, 3-((3-chloro-4-(trifluoromethoxy)benzyl)amino)-N-(3-((7-chloro-6-(4H-1,2,4-triazol-4-yl)-1H-indazol-4-yl)amino)propyl)propanamide], the results for the IC50 on intracellular CK2α, on CK2α and on CLK2 were 11400 nM, 17 nM and 448 nM, respectively.

Take `Fc1cc(CNCCCCOCCNc2cc(-n3cnnc3)c(Cl)c3[nH]ncc23)cc(F)c1OC(F)(F)F` [Example 182, 7-chloro-N-(2-(4-((3,5-difluoro-4-(trifluoromethoxy)benzyl)amino)butoxy)ethyl)-6-(4H-1,2,4-triazol-4-yl)-1H-indazol-4-amine]: the IC50 at intracellular CK2α is 5410 nM; at CK2α, 29.6 nM; on CLK2, 1820 nM.

For `O=C(CCNCc1ccc(OC(F)(F)F)c(Cl)c1)NCCCNc1cc(-c2ncns2)cc2[nH]ncc12` [Example 183, N-(3-((6-(1,2,4-thiadiazol-5-yl)-1H-indazol-4-yl)amino)propyl)-3-((3-chloro-4-(trifluoromethoxy)benzyl)amino)propanamide], the IC50 on intracellular CK2α turned out to be 145 nM; at CK2α, 2.39 nM; on CLK2, 907 nM.

Regarding `Nc1cc(-c2cc(NCCCNC(=O)CCNCc3ccc(OC(F)(F)F)c(Cl)c3)c3cn[nH]c3c2)ccn1` [Example 184, N-(3-((6-(2-aminopyridin-4-yl)-1H-indazol-4-yl)amino)propyl)-3-((3-chloro-4-(trifluoromethoxy)benzyl)amino)propanamide], the figures for the IC50 on intracellular CK2α, at CK2α and on CLK2 were 177 nM, 0.94 nM and 17 nM, respectively.

Turning to `O=C(CCNCc1ccc(OC(F)(F)F)c(Cl)c1)NCCCNc1cc(-c2ccncc2)nc2[nH]ncc12` [Example 185, 3-((3-chloro-4-(trifluoromethoxy)benzyl)amino)-N-(3-((6-(pyridin-4-yl)-1H-pyrazolo[3,4-b]pyridin-4-yl)amino)propyl)propanamide], the IC50 on intracellular CK2α was found to be 106 nM; on CK2α it was 0.76 nM; at CLK2, 787 nM.

`Fc1cc(CNCCCCOCCNc2c(Cl)c(-n3cnnc3)cc3[nH]ncc23)cc(F)c1OC(F)(F)F` [Example 186, 5-chloro-N-(2-(4-((3,5-difluoro-4-(trifluoromethoxy)benzyl)amino)butoxy)ethyl)-6-(4H-1,2,4-triazol-4-yl)-1H-indazol-4-amine]: the IC50 was more than 48900 nM at intracellular CK2α, 717 nM at CK2α and 4750 nM at CLK2.

`N#Cc1cc(-c2cc(NCCCNC(=O)CCNCc3ccc(OC(F)(F)F)c(Cl)c3)c3cn[nH]c3c2)cnn1` [Example 187, 3-((3-chloro-4-(trifluoromethoxy)benzyl)amino)-N-(3-((6-(6-cyanopyridazin-4-yl)-1H-indazol-4-yl)amino)propyl)propanamide]: the IC50 turned out to be 949 nM on intracellular CK2α, 8.62 nM on CK2α and 4680 nM at CLK2.

As for `Nc1cc(-c2cc(NCCCNC(=O)CCNCc3ccc(OC(F)(F)F)c(Cl)c3)c3cn[nH]c3c2)cnn1` [Example 188, N-(3-((6-(6-aminopyridazin-4-yl)-1H-indazol-4-yl)amino)propyl)-3-((3-chloro-4-(trifluoromethoxy)benzyl)amino)propanamide], the results for the IC50 on intracellular CK2α, at CK2α and at CLK2 were 516 nM, 0.5 nM and 52.9 nM, respectively.

With `O=C(CCNCc1ccc(OC(F)(F)F)c(Cl)c1)NCCCNc1cc(-c2ncon2)cc2[nH]ncc12` [Example 189, N-(3-((6-(1,2,4-oxadiazol-3-yl)-1H-indazol-4-yl)amino)propyl)-3-((3-chloro-4-(trifluoromethoxy)benzyl)amino)propanamide], the IC50 at intracellular CK2α was 1630 nM; on CK2α, 19.2 nM; at CLK2 it was 3500 nM.

In the case of `CNc1n[nH]c2cc(-n3cnnc3)cc(NCCOCCCCNCc3cc(F)c(OC(F)(F)F)c(F)c3)c12` [Example 190, N4-(2-(4-((3,5-difluoro-4-(trifluoromethoxy)benzyl)amino)butoxy)ethyl)-N3-methyl-6-(4H-1,2,4-triazol-4-yl)-1H-indazole-3,4-diamine], the IC50 turned out to be 74 nM at intracellular CK2α, 1.45 nM on CK2α and 1100 nM on CLK2.

With `CNc1n[nH]c2cc(-n3cnnc3)cc(NCCCNC(=O)CCNCc3ccc(OC(F)(F)F)c(Cl)c3)c12` [Example 191, 3-((3-chloro-4-(trifluoromethoxy)benzyl)amino)-N-(3-((3-(methylamino)-6-(4H-1,2,4-triazol-4-yl)-1H-indazol-4-yl)amino)propyl)propanamide], the IC50 on intracellular CK2α worked out at 842 nM; at CK2α it was 0.57 nM; at CLK2, 133 nM.

Consider `C[C@@H](CCCOCCNc1cc(-n2cnnc2)cc2[nH]ncc12)NCc1cc(CO)cc(OC(F)(F)F)c1` [Example 192, (S)-(3-(((5-(2-((6-(4H-1,2,4-triazol-4-yl)-1H-indazol-4-yl)amino)ethoxy)pentan-2-yl)amino)methyl)-5-(trifluoromethoxy)phenyl)methanol], for which the IC50 came out at 377 nM on intracellular CK2α, 10.6 nM at CK2α and 665 nM on CLK2.

Turning to `C[C@@H](CCCOCCNc1cc(-c2cnnc(O)c2)cc2[nH]ncc12)NCc1cc(CO)cc(OC(F)(F)F)c1` [Example 193, (S)-5-(4-((2-((4-((3-(hydroxymethyl)-5-(trifluoromethoxy)benzyl)amino)pentyl)oxy)ethyl)amino)-1H-indazol-6-yl)pyridazin-3-ol], the IC50 was 87.1 nM on intracellular CK2α, 1.21 nM on CK2α and 355 nM on CLK2.

For `C[C@@H](CCCOCCNc1cc(-c2cnnc(O)c2)cc2[nH]ncc12)NCc1cc(CC#N)cc(OC(F)(F)F)c1` [Example 194, (S)-2-(3-(((5-(2-((6-(6-hydroxypyridazin-4-yl)-1H-indazol-4-yl)amino)ethoxy)pentan-2-yl)amino)methyl)-5-(trifluoromethoxy)phenyl)acetonitrile], the IC50 was 14.9 nM at intracellular CK2α, 0.76 nM on CK2α and 195 nM at CLK2.

Turning to `C[C@@H](CCCOCCNc1cc(-c2cnnc(O)c2)cc2[nH]ncc12)NCc1cc(Cc2cnco2)cc(OC(F)(F)F)c1` [Example 195, (S)-5-(4-((2-((4-((3-(oxazol-5-ylmethyl)-5-(trifluoromethoxy)benzyl)amino)pentyl)oxy)ethyl)amino)-1H-indazol-6-yl)pyridazin-3-ol], the IC50 on intracellular CK2α turned out to be 21.4 nM; at CK2α, 0.41 nM; at CLK2, 227 nM.

In the case of `C[C@@H](CCCOCCNc1cc(-c2cnoc2)cc2[nH]ncc12)NCc1cc(OC(F)(F)F)cc(C(N)=O)c1` [Example 196, (S)-3-(((5-(2-((6-(isoxazol-4-yl)-1H-indazol-4-yl)amino)ethoxy)pentan-2-yl)amino)methyl)-5-(trifluoromethoxy)benzamide], the IC50 at intracellular CK2α is 54.7 nM; on CK2α it was 12.4 nM; at CLK2, 301 nM.

Turning to `O=C(O)c1cc(NCCOCCCCNCc2cc(F)c(OC(F)(F)F)c(F)c2)c2cn[nH]c2c1` [Example 197, 4-((2-(4-((3,5-difluoro-4-(trifluoromethoxy)benzyl)amino)butoxy)ethyl)amino)-1H-indazole-6-carboxylic acid], the values for the IC50 on intracellular CK2α, at CK2α and on CLK2 were more than 3000 nM, more than 1000 nM and more than 50000 nM, respectively.

As to `O=C(O)Cc1cc(NCCOCCCCNCc2cc(F)c(OC(F)(F)F)c(F)c2)c2cn[nH]c2c1` [Example 198, 2-(4-((2-(4-((3,5-difluoro-4-(trifluoromethoxy)benzyl)amino)butoxy)ethyl)amino)-1H-indazol-6-yl)acetic acid], the IC50 at intracellular CK2α was more than 3000 nM; on CK2α, 72.6 nM; on CLK2, more than 50000 nM.

Consider `OCCOc1cc(CNC2CC(COCCOc3cc(-c4cnnc(O)c4)cc4[nH]ncc34)C2)cc(OC(F)(F)F)c1` (stereo not drawn) [Example 199, 5-(4-(2-((3-((3-(2-hydroxyethoxy)-5-(trifluoromethoxy)benzyl)amino)cyclobutyl)methoxy)ethoxy)-1H-indazol-6-yl)pyridazin-3-ol], for which the IC50 amounted to 1940 nM on intracellular CK2α, 21.5 nM on CK2α and 1210 nM on CLK2.

As to `OCc1cc(CNC2CC(COCCOc3cc(-c4cnnc(O)c4)cc4[nH]ncc34)C2)cc(OC(F)(F)F)c1` (stereo not drawn) [Example 200], the IC50 was found to be 2960 nM at intracellular CK2α, 38.2 nM on CK2α and 594 nM on CLK2.

These data come from patent publication US20260085062A1, “NOVEL COMPOUNDS AS CK2 INHIBITORS” (Cambridge Enterprise Limited, priority 2022, published 2026).
